Where a SMILES comes first, the peptide text is derived from it. [ ]: non-standard residue; d: D form. pY = N[C@@H](Cc1ccc(OP(=O)(O)O)cc1)C(=O)O
What was measured:
[1] = target: T1, PLCγ1 (Mus musculus, UniProt Q62077); assay: Inhibition of PLCγ1 activation: western blot of p-PLCγ1 (pY783)/PLCγ1 in hippocampal lysates after intraperitoneal injection; assay type: in vivo; details: single dose 20 mg/kg i.p., wild type mice, hippocampal lysates at 3 h; dose dependent (10 or 20 mg/kg)
T1 construct: from tissue; host or cells: hippocampus of adult wild type mice
T1 sequence (Q62077 1-1302): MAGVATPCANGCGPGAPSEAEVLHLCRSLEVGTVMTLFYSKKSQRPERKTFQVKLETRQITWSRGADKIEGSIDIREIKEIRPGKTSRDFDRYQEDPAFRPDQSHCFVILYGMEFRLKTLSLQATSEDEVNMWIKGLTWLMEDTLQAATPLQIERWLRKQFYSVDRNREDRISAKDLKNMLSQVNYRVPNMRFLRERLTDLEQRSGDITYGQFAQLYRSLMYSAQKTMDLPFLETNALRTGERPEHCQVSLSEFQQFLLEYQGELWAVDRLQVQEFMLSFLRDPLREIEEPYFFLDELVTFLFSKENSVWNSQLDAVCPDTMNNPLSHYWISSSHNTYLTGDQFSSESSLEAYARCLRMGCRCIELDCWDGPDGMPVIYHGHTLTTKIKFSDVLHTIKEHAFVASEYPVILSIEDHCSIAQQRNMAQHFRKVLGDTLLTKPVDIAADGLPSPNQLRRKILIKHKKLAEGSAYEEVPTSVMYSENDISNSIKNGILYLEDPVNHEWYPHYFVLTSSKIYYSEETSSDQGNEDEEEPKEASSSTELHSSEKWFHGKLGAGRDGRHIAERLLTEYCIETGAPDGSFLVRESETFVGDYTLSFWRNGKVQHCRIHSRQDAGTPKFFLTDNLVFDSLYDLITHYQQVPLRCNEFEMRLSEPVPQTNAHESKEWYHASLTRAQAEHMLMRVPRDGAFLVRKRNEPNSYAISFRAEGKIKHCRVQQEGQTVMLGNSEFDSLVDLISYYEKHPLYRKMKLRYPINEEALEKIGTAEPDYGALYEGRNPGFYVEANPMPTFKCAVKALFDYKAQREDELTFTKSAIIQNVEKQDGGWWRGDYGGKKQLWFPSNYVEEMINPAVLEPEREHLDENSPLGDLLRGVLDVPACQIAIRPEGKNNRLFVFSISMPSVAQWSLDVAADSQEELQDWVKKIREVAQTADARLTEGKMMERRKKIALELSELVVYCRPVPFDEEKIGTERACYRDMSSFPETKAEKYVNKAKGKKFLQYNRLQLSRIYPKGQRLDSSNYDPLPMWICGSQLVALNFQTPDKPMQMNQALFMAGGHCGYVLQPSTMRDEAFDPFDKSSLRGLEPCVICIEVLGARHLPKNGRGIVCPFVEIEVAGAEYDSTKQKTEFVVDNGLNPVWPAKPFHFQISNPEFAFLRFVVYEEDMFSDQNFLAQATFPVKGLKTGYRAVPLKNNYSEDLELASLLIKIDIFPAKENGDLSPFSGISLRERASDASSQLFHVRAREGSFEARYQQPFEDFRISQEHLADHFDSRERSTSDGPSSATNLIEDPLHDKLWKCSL
Description: (§1) Determining whether pY816 may be beneficial in epileptic animals required modification of our study of the kainic acid (KA)-status epilepticus (SE) model. To more closely mimic the clinical scenario in which patients seek medical attention for established TLE, we induced KA-SE and then conducted video-EEG recordings to detect spontaneous recurrent seizures during baseline periods of two to four weeks until they developed TLE prior to treating with pY816 peptide. In contrast to just three days of treatment with pY816 deployed in previous studies, we sought a more prolonged treatment with pY816 for the current experiments, namely two weeks. The intravenous route of administration used for three days in the prior studies was not feasible for two weeks, leading us to ask whether treatment via intraperitoneal route could inhibit activation of PLCγ1. We used the phosphorylation of residue Y783 of PLCγ1 detected on western blot of brain lysates as a surrogate measure of PLCγ1 activation.
Hippocampal lysates (30-40 μg) were subjected to SDS_PAGE and western blotting. The blots were probed with antibodies specifically recognizing p-PLCγ1 (pY783) (a surrogate for activation of PLCγ1) and PLCγ1.

[2] = system: epileptic animals (KA-SE); assay: Spontaneous recurrent seizures (video-EEG) after kainic acid-induced status epilepticus (KA-SE model of TLE); assay type: in vivo, mice; details: 20 mg/kg IP twice daily for two weeks
Description: as §1
Having verified that intraperitoneal administration of pY816 inhibited PLCγ1 activation, we then asked whether treatment with pY816 initiated after onset of epilepsy and continued for two weeks would reduce the severity of epilepsy or even induce a remission. Towards that end, we induced KA-SE but then followed the animals for several weeks until they developed TLE as assessed by detection of SRS in continuous video-EEG recordings. We quantified the number of SRS in each animal by blinded review of video-EEG recordings during three distinct two week epochs (FIG. 8): a) baseline; b) treatment with pY816 (n=9) or Scr control (n=6), 20 mg/kg IP twice daily for two weeks (on Tx); c) following termination of treatment (Post Tx). As noted in FIG. 8, following induction of status epilepticus induced by infusion of kainic acid into amygdala (Gu et al 2015) animals underwent continuous video-EEG recording to detect spontaneous recurrent seizures. Following baseline recording of two weeks, animals were treated with either pY816 or Scr control peptide (20 mg/kg) twice daily for two weeks (Day 15-28). Video-EEG recording continued for two weeks following termination of treatment (Post-treatment).
Results are shown in FIG. 9, where each symbol represents the number of seizures experienced by a given animal during Baseline, Treatment (Tx), or Post-treatment (Post Tx) periods. Horizontal bars designate median. Treatment (Tx) consisted of either pY816 or Scr control given 20 mg/kg twice daily for two weeks. Note that seizure detection was performed by analyses of video-EEG recordings by two blinded investigators.
Antiseizure drugs in current clinical use provide symptomatic relief of seizures in many but not all patients, but seizures typically recur upon cessation of the drug. To verify that similar findings occur in our animal model, we tested the effect of an antiseizure drug in current clinical use in our model (carbamazepine). We infused additional animals with KA and assessed the occurrence of SRS with continuous video-EEG monitoring for several weeks. […] Thus, like TLE in humans, continuous treatment with an antiseizure drug suppresses seizures, yet seizures recur upon discontinuation of treatment.

For `CC[C@H](C)[C@H](NC(=O)[C@H](CC(=O)O)NC(=O)[C@H](CC(C)C)NC(=O)[C@H](Cc1ccc(OP(=O)(O)O)cc1)NC(=O)[C@@H](NC(=O)[C@@H]1CCCN1C(=O)[C@H](CO)NC(=O)[C@H](C)NC(=O)[C@H](CCCCN)NC(=O)[C@H](C)NC(=O)[C@H](CC(C)C)NC(=O)[C@H](CC(N)=O)NC(=O)[C@H](CCC(N)=O)NC(=O)[C@H](CC(C)C)NC(=O)[C@H](CCCNC(=N)N)NC(=O)[C@H](CCCNC(=N)N)NC(=O)[C@H](CCCNC(=N)N)NC(=O)[C@H](CCC(N)=O)NC(=O)[C@H](CCCNC(=N)N)NC(=O)[C@H](CCCNC(=N)N)NC(=O)[C@H](CCCCN)NC(=O)[C@H](CCCCN)NC(=O)[C@H](CCCNC(=N)N)NC(=O)CNC(=O)[C@@H](N)Cc1ccc(O)cc1)C(C)C)C(=O)O` [pY816] (H-YGRKKRRQRRRLQNLAKASPV[pY]LDI-OH), the “Inhibition of PLCγ1 activation (reduction of p-PLCγ1 (pY783)/PLCγ1 ratio versus Scr)” value [1] was about 60% and the “Overt untoward effects during or following treatment” value [2] was “No overt untoward effects were detected”.

Source: patent publication US20190269752A1, “Methods for the Prevention or Treatment of Epilepsy” (Duke University, priority 2018, published 2019)
